Literature values in patent US20110081780A1, “AQUEOUS DISPERSION FOR CHEMICAL MECHANICAL POLISHING AND CHEMICAL MECHANICAL POLISHING METHOD” (JSR CORPORATION, priority 2008, published 2011).

How the values were obtained:
[1] = commercially available products
[2] = 25° C.; second carboxyl group if two carboxyl groups, third if three or more

Row | HLB value [1] | pKa [2] | Molecule
1 | 13 |  | 2,4,7,9-tetramethyl-5-decyne-4,7-diol-dipolyoxyethylene ethers [Surfynol 465]
2 | 17 |  | 2,4,7,9-tetramethyl-5-decyne-4,7-diol-dipolyoxyethylene ethers [Surfynol 485]
3 |  | 6.18 | O=C(O)[C@@H]1CCCCC[C@H]1C(=O)O (relative stereo) [1,2-Cycloheptanedicarboxylic acid (trans)]
4 |  | 6.24 | O=C(O)[C@@H]1CCCCCC[C@H]1C(=O)O (relative stereo) [1,2-Cyclooctanedicarboxylic acid (trans)]
5 |  | 7.60 | O=C(O)[C@H]1CCCCC[C@H]1C(=O)O [1,2-Cycloheptanedicarboxylic acid (cis)]
6 |  | 7.34 | O=C(O)[C@H]1CCCCCC[C@H]1C(=O)O [1,2-Cyclooctanedicarboxylic acid (cis)]
7 |  | 7.42 | CCC(CC)(C(=O)O)C(=O)O [2,2-Diethylmalonic acid]
8 |  | 8.85 | CC(C)C(C(=O)O)(C(=O)O)C(C)C [2,2-Diisopropylmalonic acid]
9 |  | 10.26 | CC(C)(C)C(C(=O)O)C(C(=O)O)C(C)(C)C (stereo not drawn) [2,3-Di-t-butylsuccinic acid]
10 |  | 6.46 | CCC(C(=O)O)C(CC)C(=O)O (stereo not drawn) [2,3-Diethylsuccinic acid]
11 |  | 6.00 | CC(C(=O)O)C(C)C(=O)O (stereo not drawn) [2,3-Dimethylsuccinic acid]
12 |  | 7.31 | CCC(CC)C(CC)(CCC(=O)O)C(=O)O (stereo not drawn) [2-Ethyl-2-(1-ethylpropyl)glutaric acid]
13 |  | 6.55 | CCC(C)(C(=O)O)C(=O)O [2-Ethyl-2-methylmalonic acid]
14 |  | 6.10 | CCC(C(=O)O)C(C)C(=O)O (stereo not drawn) [2-Ethyl-3-methylsuccinic acid]
15 |  | 5.81 | CCC(C(=O)O)C(=O)O [2-Ethylmalonic acid]
16 |  | 5.88 | CC(C)C(C(=O)O)C(=O)O [2-Isopropylmalonic acid]

Row | HLB value [1] | pKa [2] | Molecule
17 |  | 6.89 | CC1CCCCC1(CC(=O)O)CC(=O)O (stereo not drawn) [2-Methylcyclohexyl-1,1-diacetic acid]
18 |  | 7.42 | CCC(CC)(CC(=O)O)CC(=O)O [3,3-Diethylglutaric acid]
19 |  | 7.68 | CC(C)C(CC(=O)O)(CC(=O)O)C(C)C [3,3-Diisopropylglutaric acid]
20 |  | 6.45 | CC(C)(CC(=O)O)CC(=O)O [3,3-Dimethylglutaric acid]
21 |  | 7.48 | CCCC(CCC)(CC(=O)O)CC(=O)O [3,3-Dipropylglutaric acid]
22 |  | 6.95 | CCC(CC(=O)O)(CC(=O)O)c1ccccc1 [3-Ethyl-3-phenylglutaric acid]
23 |  | 6.92 | CC(C)C(C)(CC(=O)O)CC(=O)O [3-Isopropyl-3-methylglutaric acid]
24 |  | 6.70 | CCC(C)(CC(=O)O)CC(=O)O [3-Methyl-3-ethylglutaric acid]
25 |  | 6.17 | CC(CC(=O)O)(CC(=O)O)c1ccccc1 [3-Methyl-3-phenylglutaric acid]
26 |  | 7.49 | CC(C)(C)C(C)(CC(=O)O)CC(=O)O [3-t-Butyl-3-methylglutaric acid]
27 |  | 7.08 | O=C(O)CC1(CC(=O)O)CCCCC1 [Cyclohexyl-1,1-diacetic acid]
28 |  | 6.77 | O=C(O)CC1(CC(=O)O)CCCC1 [Cyclopentyl-1,1-diacetic acid]
29 |  | 5.55 | O=C(O)CC(C(=O)O)c1ccccc1 (stereo not drawn) [Phenylsuccinic acid]
30 |  | 7.41 | CC(C)(C(=O)O)C(C)(C)C(=O)O [Tetramethylsuccinic acid]
31 |  | 9.96 | O=C(O)c1cccc(O)c1 [m-Hydroxvbenzoic acid]
32 |  | 9.46 | O=C(O)c1ccc(O)cc1 [p-Hydroxybenzoic acid]

Row | Molecule | HLB value [1] | pKa [2]
33 | CC(C(=O)O)C(=O)O [2-Methylmalonic acid] |  | 5.76
